Assay results from patent US11992499B2, “Quinoline derivatives for use in the treatment of inflammation diseases” (ABIVAX, priority 2018, dated 2024).
Entries after “also recorded” stand apart in the source; their conditions may differ.

Experiments:
[1] = system: monocrotaline model of pulmonary arterial hypertension; assay: Rat monocrotaline model of pulmonary arterial hypertension: mean pulmonary pressure; format: in vivo; conditions: for Effect on pulmonary pressure: pulmonary hypertension induced by monocrotaline; for Mean Pulmonary Pressure: MCT
Description: • 1. The experimental trace to be analyzed is opened in Clampfit. • 2. Right atria pressure is recorded for 1 minute • 3. PAP recorded continuously for at least 1 minute or until loss of signal, is used to extract the mean, diastolic, and systolic pulmonary pressure. • 4. The systemic arterial pressure (SAP) recorded continuously is used to extract the mean, diastolic and systolic arterial pressure. • 5. At the end of the hemodynamic parameters recording, the right and left ventricle including the septum and the lung lobes is excised to determine wet weights. • 6. Each parameter is compiled for each group and presented in bar graphs with appropriate statistical analysis.
The appropriate amount of monocrotaline is weighed and ⅓ of the correct volume of 1.0N HCl is added and mixed to ensure monocrotaline solubilisation. The solution is then neutralized with ⅓ of the correct volume of 1.0 N NaOH. The pH of the solution is checked with a pH indicator paper/strip or an electronic pH meter and adjusted to neutral as necessary; the final volume is completed with water for injection to obtain a solution of 20 mg/mL. The monocrotaline solution is injected subcutaneously, over the shoulders, into the loose skin over the neck, to each rat at 3 mL/kg of body weight (dose is 60 mg/kg).
Compound A was administered as a suspension in the vehicle. To reach the required concentrations, compound A was grounded to a fine powder, using a mortar and pestle, and then mixed with 20% (final volume) of vehicle A1 until a suspension was achieved. 80% of vehicle A2 was then added to the suspension under magnetic stirring.
The appropriate amount of Sildenafil is weighed and appropriate volume of distillated water is added to obtain suspension at 5 mg/mL. The suspension is mixed with a stir bar for 30-60 minutes until a homogenous suspension is achieved. Care is taken to maintain a uniform suspension (stirring continuously) whilst doses are being drawn up into gavage syringes. One gavage syringe is filled at a time and administered before filling the next syringe. The solutions are stored refrigerated at 2 to 8° C. and protected from light. The expiration date is set at 7 days after preparation.
Animals from Groups 2 to 5 (see Table 13) receive a single subcutaneous injection of monocrotaline (60 mg/kg) solution on Day 0 and returned to their cages. Animals from Group 1 receive one subcutaneous injection vehicle for MCT on Day 0 and returned to their respective cages.
Treatment with the compound A, sildenafil or vehicle is administered as of Day 7 (Groups 2-5) as scheduled and described in Table 13. The Groups 2-4 receive a single dose per day. The reference group 5 receives sildenafil twice a day. Food and water are given ad libitum. Daily observation of the behaviour and general health status of the animals is done. Weekly body weight is taken.
Surgical Instrumentation and Measurement of Hemodynamic and Functional Parameters in Efficacy Study Animals • 1. On the selected day of surgery, rats are anaesthetized with a mixture of 2 to 2.5% isoflurane USP (Abbot Laboratories, Montreal, Canada) in oxygen, and placed on a heating pad to maintain body temperature. • 2. Rats are tracheotomized and immediately ventilated by means of a positive-pressure rodent respirator set at ≈10 ml/kg bodyweight at a frequency of 65-70 strokes/min. • 3. Lead II ECG contact electrodes is placed on the rat to continuously monitor the ECG during the surgical procedure. • 4. A cannula connected to a pressure transducer is inserted into the left femoral artery to measure the arterial blood pressure. • 5. A cannula connected to a pressure transducer is inserted into the right atria through the right jugular vein to measure the right atria pressure. • 6. The heart is exposed through a sternotomy and a 20GA 1.16 in Insyte is introduced into the right ventricle and rapidly hooked up to a saline filled PE-50 catheter connected to a transducer. • 7. […]

[2] = system: STAM model of non-alcoholic steatohepatitis; assay: STAM model of NASH: HE staining and NAFLD Activity score; format: in vivo, mice; set-up: key to NAFLD Activity score (mean ± SD): NAFLD Activity score per Kleiner et al. 2005 criteria
Description: NASH was induced in 48 male mice by a single subcutaneous injection of 200 μg streptozotocin (STZ, Sigma-Aldrich, USA) solution 2 days after birth and feeding with high fat diet (HFD, 57 kcal % fat, Cat #HFD32, CLEA Japan, Inc., Japan) after 4 weeks of age. Compound A was administered at 3 dose levels of 10, 20 and 40 mg/kg once daily from 6 to 9 weeks of age. Compound B was administered at a dose of 40 mg/kg once daily from 6 to 9 weeks of age. Telmisartan was administered at a dose of 10 mg/kg once daily from 6 to 9 weeks of age. For HE staining, sections were cut from paraffin blocks of liver tissue prefixed in Bouin's solution and stained with Lillie-Mayer's Hematoxylin (Muto Pure Chemicals Co., Ltd., Japan) and eosin solution (FUJIFILM Wako Pure Chemical Corporation). NAFLD Activity score (NAS) was calculated according to the criteria of Kleiner (Kleiner D E. et al., Hepatology, 2005; 41:1313). To visualize collagen deposition, Bouin's fixed liver sections were stained using picro-Sirius red solution (Waldeck, Germany). For quantitative analysis of fibrosis area, bright field images of Sirius red-stained sections were captured around the central vein using a digital camera (DFC295; Leica, Germany) at 200-fold magnification, and the positive areas in 5 fields/section were measured using ImageJ software (National Institute of Health, USA).

[3] = system: STAM model of non-alcoholic steatohepatitis; assay: STAM model of NASH: F4/80 immunostaining; format: in vivo, mice; conditions: for F4/80-positive area (mean ± SD): n = 8
Description: NASH was induced in 48 male mice by a single subcutaneous injection of 200 μg streptozotocin (STZ, Sigma-Aldrich, USA) solution 2 days after birth and feeding with high fat diet (HFD, 57 kcal % fat, Cat #HFD32, CLEA Japan, Inc., Japan) after 4 weeks of age.
Compound A was administered at 3 dose levels of 10, 20 and 40 mg/kg once daily from 6 to 9 weeks of age. Compound B was administered at a dose of 40 mg/kg once daily from 6 to 9 weeks of age. Telmisartan was administered at a dose of 10 mg/kg once daily from 6 to 9 weeks of age.

[4] = summary statement, dose not stated
[5] = 10 mg/kg PO QD, 6-9 wks of age (Compound A low, Telmisartan groups), n = 8
[6] = 20 mg/kg PO QD (Compound A middle group)
[7] = 20 mg/kg PO QD, 6-9 wks of age (Compound A middle group), n = 8
[8] = 40 mg/kg PO QD (Compound A high, Compound B groups)
[9] = 40 mg/kg PO QD, 6-9 wks of age (Compound A high, Compound B groups), n = 8

FC(F)(F)Oc1ccc(Nc2ccc3cccc(Cl)c3n2)cc1 [8-Chloro-N-(4-(trifluoromethoxy)phenyl)quinolin-2-amine]
Effect on pulmonary pressure ([1]; female rat): reduces significantly | NAS compared with the Vehicle group [2, 4]: decreasing trend | F4/80-positive area in the liver [3, 4]: decreased

FC(F)(F)Oc1ccc(Nc2ccc3cccc(Cl)c3n2)cc1 [Compound A, 8-Chloro-N-(4-(trifluoromethoxy)phenyl)quinolin-2-amine]
Mean Pulmonary Pressure ([1]; female rat, 70 mg/kg QD gavage Day 7 to Day 28, n = 7): 22.2 mmHg | Mean Pulmonary Pressure ([1]; female rat, 120 mg/kg QD gavage Day 7 to Day 28, n = 11): 16.9 mmHg | Effect on pulmonary pressure ([1]; female rat): reduces significantly | Effect on pulmonary pressure ([1]; male rat): no effect | NAS compared with the Vehicle group ([2]; 10 mg/kg PO QD (Compound A low, Telmisartan groups)): tended to decrease; also recorded: decreasing trend | Hepatocyte ballooning score 0 (None), number of mice [2, 5]: 3 | Hepatocyte ballooning score 1 (Few balloon cells), number of mice [2, 5]: 2 | Hepatocyte ballooning score 2 (Many cells/prominent ballooning), number of mice [2, 5]: 3 | Lobular inflammation score 2 (2-4 foci/200×), number of mice [2, 5]: 7 | Lobular inflammation score 3 (>4 foci/200×), number of mice [2, 5]: 1 | NAFLD Activity score (mean ± SD) [2, 5]: 3.6 ± 1.1 | Steatosis score 0 (<5%), number of mice [2, 5]: 4 | Steatosis score 1 (5-33%), number of mice [2, 5]: 4 | NAS compared with the Vehicle group [2, 6]: tended to decrease; also recorded: decreasing trends | Hepatocyte ballooning score 0 (None), number of mice [2, 7]: 3 | Hepatocyte ballooning score 1 (Few balloon cells), number of mice [2, 7]: 3 | Hepatocyte ballooning score 2 (Many cells/prominent ballooning), number of mice [2, 7]: 2 | Lobular inflammation score 2 (2-4 foci/200×), number of mice [2, 7]: 6 | Lobular inflammation score 3 (>4 foci/200×), number of mice [2, 7]: 2 | NAFLD Activity score (mean ± SD) [2, 7]: 3.4 ± 1.2 | Steatosis score 0 (<5%), number of mice [2, 7]: 6 | Steatosis score 1 (5-33%), number of mice [2, 7]: 2 | NAS compared with the Vehicle group [2, 8]: tended to decrease; also recorded: decreasing trend | Hepatocyte ballooning score 0 (None), number of mice [2, 9]: 5 | Hepatocyte ballooning score 1 (Few balloon cells), number of mice [2, 9]: 2 | Hepatocyte ballooning score 2 (Many cells/prominent ballooning), number of mice [2, 9]: 1 | Lobular inflammation score 1 (<2 foci/200×), number of mice [2, 9]: 1 | Lobular inflammation score 2 (2-4 foci/200×), number of mice [2, 9]: 2 | Lobular inflammation score 3 (>4 foci/200×), number of mice [2, 9]: 5 | NAFLD Activity score (mean ± SD) [2, 9]: 3.4 ± 1.3 | Steatosis score 0 (<5%), number of mice [2, 9]: 5 | Steatosis score 1 (5-33%), number of mice [2, 9]: 3 | Overall effect in this NASH model ([2]; conclusion of the study): potential anti-NAS and anti-fibrosis effects | NAS compared with the Vehicle group [2, 4]: decreasing trends | F4/80-positive area (mean ± SD) ([3]; 10 mg/kg PO QD, 6-9 wks of age (Compound A low, Telmisartan groups)): 2.22 ± 0.46% | F4/80-positive area compared with the Vehicle group [3, 6]: tended to decrease | F4/80-positive area (mean ± SD) ([3]; 20 mg/kg PO QD, 6-9 wks of age (Compound A middle group)): 1.88 ± 0.62% | F4/80-positive area compared with the Vehicle group [3, 8]: significant decrease | F4/80-positive area (mean ± SD) ([3]; 40 mg/kg PO QD, 6-9 wks of age (Compound A high, Compound B groups)): 1.53 ± 0.77%
